From the CheMixHub viscosity set

Test: xn = mol fraction of the nth substance listed

CC(Cl)(Cl)Cl + CCC(C)O
298.15 K, 101 kPa
Settings	viscosity [mPa·s]
x1 = 0.099	2.21
x1 = 0.2079	1.726
x1 = 0.2768	1.46
x1 = 0.3656	1.225
x1 = 0.5119	1.008
x1 = 0.5786	0.94
x1 = 0.6988	0.85
x1 = 0.78	0.808
x1 = 0.8911	0.781

O=CO + O=[N+]([O-])c1ccccc1
viscosity [mPa·s], 101 kPa
Settings	x1 = 0.1791	x1 = 0.2956	x1 = 0.4132	x1 = 0.5229	x1 = 0.6396	x1 = 0.7402	x1 = 0.8361
298.15 K	1.676	1.636	1.604	1.591	1.593	1.592	1.576
323.15 K	1.114	1.084	1.054	1.043	1.025	1.029	1.005

CCCC[N+](CCCC)(CCCC)CCCC.[OH-] + CS(C)=O
viscosity [mPa·s], 100 kPa
Settings	298.15 K	303.15 K	308.15 K	313.15 K
x1 = 0.0159	2.19	2.01	1.87	1.77
x1 = 0.0368	2.43	2.31	2.19	2.12
x1 = 0.0632	2.72	2.58	2.47	2.38
x1 = 0.0911	3.02	2.88	2.77	2.7
x1 = 0.1206	3.32	3.18	3.08	3
x1 = 0.1519	3.65	3.5	3.4	3.33
x1 = 0.2183	4.25	4.13	4.07	4.02
x1 = 0.2907	4.86	4.75	4.69	4.65
x1 = 0.3787	5.51	5.38	5.33	5.29
x1 = 0.4429	5.92	5.79	5.73	5.69
x1 = 0.5298	6.4	6.26	6.17	6.13
x1 = 0.6052	6.71	6.56	6.45	6.42
x1 = 0.6947	6.97	6.82	6.67	6.62
x1 = 0.7486	7.03	6.88	6.74	6.7
x1 = 0.8273	7.07	6.93	6.77	6.7
x1 = 0.8964	7	6.85	6.69	6.54
x1 = 0.9481	6.86	6.7	6.53	6.42
x1 = 0.9765	6.76	6.61	6.42	6.32

O=CO + CO
303.15 K, 101 kPa
Settings	viscosity [mPa·s]
x1 = 0.0714	0.573
x1 = 0.1463	0.609
x1 = 0.2264	0.641
x1 = 0.3137	0.658
x1 = 0.4031	0.677
x1 = 0.506	0.691
x1 = 0.6149	0.75
x1 = 0.7328	0.867
x1 = 0.8604	1.062

CC(Cl)(Cl)Cl + CCC(C)=O
298.15 K, 101.33 kPa
Settings	viscosity [mPa·s]
x1 = 0.098	0.4094
x1 = 0.201	0.438
x1 = 0.299	0.4678
x1 = 0.398	0.5001
x1 = 0.499	0.5361
x1 = 0.6	0.5757
x1 = 0.7	0.6196
x1 = 0.8	0.669
x1 = 0.9	0.7256

CC(Cl)(Cl)Cl + CCCCCOC(C)=O
303.15 K, 101.3 kPa
Settings	viscosity [mPa·s]
x2 = 0.104	0.7366
x2 = 0.1989	0.7441
x2 = 0.2995	0.7518
x2 = 0.4018	0.7568
x2 = 0.5014	0.7653
x2 = 0.5996	0.7667
x2 = 0.6961	0.7663
x2 = 0.7935	0.7658
x2 = 0.8993	0.7589

O=[N+]([O-])[O-].O=[N+]([O-])[O-].[Ba+2] + N
293.15 K, 101 kPa
Settings	viscosity [mPa·s]
x1 = 0.06	0.171
x1 = 0.13	0.24
x1 = 0.28	0.366
x1 = 0.58	0.81

O=C([O-])C(F)(F)F.[Cs+] + O
viscosity [mPa·s], 101 kPa
Settings	298.15 K	303.15 K	308.15 K	313.15 K
x1 = 0.00102	0.897	0.805	0.727	0.663
x1 = 0.00146	0.899	0.808	0.729	0.666
x1 = 0.002202	0.904	0.812	0.734	0.67
x1 = 0.00303	0.909	0.817	0.739	0.675
x1 = 0.003649	0.913	0.821	0.743	0.679
x1 = 0.004385	0.918	0.826	0.747	0.684
x1 = 0.005137	0.923	0.83	0.752	0.689
x1 = 0.005844	0.928	0.836	0.757	0.693
x1 = 0.006694	0.933	0.841	0.762	0.698
x1 = 0.007272	0.937	0.845	0.767	0.702
x1 = 0.008058	0.943	0.85	0.772	0.707
x1 = 0.008713	0.947	0.855	0.777	0.711
x1 = 0.009254	0.95	0.858	0.78	0.716
x1 = 0.01011	0.956	0.864	0.784	0.721

CC(O)c1ccccc1 (centres undefined) + c1ccccc1
293.15 K, 101.32 kPa
Settings	viscosity [mPa·s]
x1 = 0.01616	0.6575
x1 = 0.05419	0.708
x1 = 0.09606	0.7832
x1 = 0.1306	0.85
x1 = 0.1766	0.9508

CC(Cl)(Cl)Cl + C[N+](=O)[O-]
298.15 K, 101.33 kPa
Settings	viscosity [mPa·s]
x1 = 0.101	0.6114
x1 = 0.201	0.6128
x1 = 0.251	0.6165
x1 = 0.301	0.622
x1 = 0.351	0.6284
x1 = 0.4	0.6356
x1 = 0.451	0.6435
x1 = 0.5	0.6518
x1 = 0.55	0.6607
x1 = 0.551	0.6609
x1 = 0.6	0.6702
x1 = 0.65	0.6803
x1 = 0.651	0.6805
x1 = 0.7	0.6912
x1 = 0.749	0.703
x1 = 0.812	0.7202
x1 = 0.867	0.7375

CC(Cl)(Cl)Cl + Cc1ccccc1
303.15 K, 101 kPa
Settings	viscosity [mPa·s]
x1 = 0.1635	0.5716
x1 = 0.2871	0.6046
x1 = 0.3684	0.6248
x1 = 0.4152	0.6363
x1 = 0.4825	0.6505
x1 = 0.5694	0.6666
x1 = 0.6729	0.6834
x1 = 0.763	0.6958
x1 = 0.8412	0.7049
x1 = 0.9286	0.7156
